# Measurements as given in article PMC9378861, “Formation and metabolism of 6-(1-acetol)-8-(1-acetol)-rutin in foods and in vivo, and their cytotoxicity” (Frontiers in Nutrition, 2022).
# Values joined by “and” are separate entries in the source; they are usually repeats but may differ in a detail not shown here. Identical values can stand only once.
# How the values were obtained:
# [1] = cited from earlier work; for Elimination rate on MGO (MGO scavenged): incubated with MGO at 37°C for 24 h
# [2] = Plasma concentration of rutin-MGO adducts in rats after oral rutin (HPLC-MS/MS, MRM); assay type: in vivo, Sprague–Dawley rats
# Method: (§1) The animals were treated as described in the study by Chen et al. ([22]). In brief, five 7 weeks old male Sprague–Dawley rats (190–220 g) were exposed to rutin (100 mg/kg BW) by oral gavage after fasting for 16 h. The plasma samples were collected at 0.25, 0.5, 1, 2, 4, 6, 8, 10, and 24 h after the administration, and stored under −80°C until analysis. The feces and urine were collected with the metabolic cages throughout the 24 h period. At 24 h, the rats were sacrificed after anesthetization, and the tissues including stomach, intestine (divided into duodenum, jejunum, ileum, caecum, and colon), heart, liver, kidney, and brain were taken and frozen immediately in liquid nitrogen and transferred to a deep freezer (−80°C) for storage before analysis. The procedures of the animal study followed the protocol by the Institutional Animal Care and Use Committee of the Laboratory Animal Center of Jinan University.
# (§2) The plasma samples were treated as described by Chen et al. ([22]). About half gram of feces and tissue samples were weight accurately, and homogenized with 2 mL saline on an ice-bath. The homogenates were transferred to a centrifuge tube, added with 1 mL PBS (pH 5.0, 0.05 M) and 100 μL ascorbic acid (150 mg/mL), and extracted with 3 mL of methanol twice. The supernatants were combined after centrifugation at 13,000 × g under 4 °C for 10 min, evaporated to dryness, re-dissolved in 500 μL of 50% aqueous methanol containing 0.1% formic acid (v/v), and filtered through a 0.22 μm membrane for HPLC-MS/MS analysis. The adducts in 200 μL of urine were extracted twice with 1 mL methanol. The supernatants were collected after centrifugation at 13,000 × g under 4°C for 10 min, and evaporated to dryness. The residues were dissolved in 200 μL of 50% aqueous methanol containing 0.1% formic acid (v/v), and filtered through a 0.22 μm membrane for HPLC-MS/MS analysis. A sample of 1 μL was injected into an Agilent Technologies 1,260 Infinity HPLC (Agilent Technologies, CA, USA) interfaced to an AB 4500 Q-Trap mass spectrometer (AB Sciex, MA, USA) in the negative mode for quantification of adducts A and B, respectively. The eluting programs for HPLC analysis, and the operation conditions of mass spectrometer refers to those established by Chen et al. ([22]). […] Moreover, as the information on the occurrence levels of 6-(1,2-propanedione)-8-(1-acetol)-rutin, 6-(1-acetol)-8-(1,2-propanedione)-rutin, and 6-(1,2-propanedione)-8-(1,2-propanedione)-rutin discovered in the last study was still missing, the concentration of these oxidized rutin-MGO adducts in various tissues and urine and feces were also determined in this study. The qualification and quantification fragmentation transitions of these adducts refers to those provided previously ([22]).
# [3] = Rutin-MGO adducts in tissues, urine and feces of rats 24 h after oral rutin; assay type: in vivo, Sprague–Dawley rats; settings: for Concentration in feces: feces collected within 24 h after rutin 100 mg/kg BW oral; for Concentration in urine: urine collected within 24 h after rutin 100 mg/kg BW oral
# Method: as §1, §2
# [4] = tested on: human gastric epithelial cell line (GES-1); assay: Cytotoxicity by MTT assay, GES-1; assay type: cell-based; settings: 24 h
# [5] = tested on: human umbilical vein endothelial (HUVEC) cell; assay: Cytotoxicity by MTT assay, HUVEC; assay type: cell-based; settings: 1 mM, 24 h
# [6] = tested on: human colon carcinoma cell line (Caco-2); assay: Cytotoxicity by MTT assay, Caco-2; assay type: cell-based; settings: Caco-2, 1 mM, 24 h
# [7] = tested on: AGEs; settings: cited from earlier work
# [8] = parameters: method as in PMID 19916501; settings: anesthetized, mesenteric lymphatic/duodenum-cannulated rat model; cited from earlier work
# [9] = rats, 15 min after administration of rutin; cited from earlier work
# [10] = rutin 100 mg/kg BW oral gavage, time point 0.25 h
# [11] = rutin 100 mg/kg BW oral gavage, time point 1.00 h
# [12] = rutin 100 mg/kg BW oral gavage, time point 2.00 h
# [13] = 24 h after rutin 100 mg/kg BW oral
smiles,measurement,setting,value
O=C(CCc1ccc(O)cc1)c1c(O)cc(O)cc1O [phloretin],Elimination rate on MGO (MGO scavenged),[1],99%
COc1ccc([C@@H]2CC(=O)c3c(O)cc(O)cc3O2)cc1O [hesperetin],Elimination rate on MGO (MGO scavenged),[1],63%
"CC(=O)C(O)c1c(O)c(C(O)C(C)=O)c2oc(-c3ccc(O)c(O)c3)c(OC3OC(COC4OC(C)C(O)C(O)C4O)C(O)C(O)C3O)c(=O)c2c1O (stereo not shown) [Adduct B, 6-(1-acetol)-8-(1-acetol)-rutin]",Plasma concentration,[2]; [10],6.40 ng/mL and 6.40 ± 3.90 ng/mL
same,Plasma concentration,[2]; [11],trace
same,Plasma concentration,[2]; [12],trace
same,Plasma concentration,"[2]; rutin 100 mg/kg BW oral gavage, time point 8.00 h",trace
same,Plasma concentration,"[2]; rutin 100 mg/kg BW oral gavage, time point 24.00 h",trace
same,Concentration in kidney,[3]; [13],trace
same,Concentration in feces,[3],Trace
same,Reduction of cell viability (cells dead),"[4]; GES-1, 1 mM",25%
same,Reduction of cell viability (cells dead),[5],16%
same,Reduction of cell viability (cells dead),[6],18%
"C[C@@H]1O[C@@H](OC[C@H]2O[C@@H](Oc3c(-c4ccc(O)c(O)c4)oc4cc(O)cc(O)c4c3=O)[C@H](O)[C@@H](O)[C@@H]2O)[C@H](O)[C@H](O)[C@H]1O [rutin, quercetin-3-O-rutinoside]",MGO eliminated,"[1]; rutin 0.5 mM with MGO 0.5 mM, 37 °C, 24 h, simulated physiological condition",50%
same,Inhibitory effect on the formation of AGEs in glycation reaction,[7],more than 90%
same,Reduction of cell viability (cells dead),"[4]; GES-1, 1 mM",16%
same,Reduction of cell viability (cells dead),[5],12%
same,Reduction of cell viability (cells dead),[6],15%
same,Time at which plasma concentration reached maximum,[8],60 min
"CC(=O)C(=O)c1c(O)c(C(O)C(C)=O)c2oc(-c3ccc(O)c(O)c3)c(OC3OC(COC4OC(C)C(O)C(O)C4O)C(O)C(O)C3O)c(=O)c2c1O (stereo not shown) [6-(1,2-propanedione)-8-(1-acetol)-rutin]",Concentration in brain,[3]; [13],0.11 ± 0.02 µg/kg
same,Concentration in heart,[3]; [13],0.09 ± 0.03 µg/kg
same,Concentration in ileum,[3]; [13],trace
same,Concentration in kidney,[3]; [13],0.07 ± 0.01 µg/kg
same,Concentration in liver,[3]; [13],trace
same,Concentration in feces,[3],1.54 ± 0.49 µg/kg
same,Concentration in urine,[3],trace
same,Plasma concentration of oxidized rutin-MGO adducts,[9],2.38 ng/mL
O=C(O[C@@H]1Cc2c(O)cc(O)cc2O[C@@H]1c1cc(O)c(O)c(O)c1)c1cc(O)c(O)c(O)c1 [(–)-epigallocatechin gallate],Elimination rate on MGO (MGO scavenged),[1],99%
"CC(=O)C(=O)c1c(O)c(C(O)C(C)=O)c(O)c2c(=O)c(O[C@@H]3O[C@H](CO[C@@H]4O[C@@H](C)[C@H](O)[C@@H](O)[C@H]4O)[C@@H](O)[C@H](O)[C@H]3O)c(-c3ccc(O)c(O)c3)oc12 (stereo partly shown) [6-(1-acetol)-8-(1,2-propanedione)-rutin]",Concentration in brain,[3]; [13],0.45 ± 0.28 µg/kg
same,Concentration in colon,[3]; [13],trace
same,Concentration in heart,[3]; [13],trace
same,Concentration in ileum,[3]; [13],trace
same,Concentration in kidney,[3]; [13],0.12 ± 0.02 µg/kg
same,Concentration in liver,[3]; [13],trace
same,Concentration in stomach,[3]; [13],trace
same,Concentration in feces,[3],2.23 ± 0.54 µg/kg
same,Concentration in urine,[3],0.09 ng/mL and 0.09 ± 0.00 ng/mL
same,Plasma concentration of oxidized rutin-MGO adducts,[9],1.61 ng/mL
O=c1cc(-c2ccc(O)cc2)oc2cc(O)cc(O)c12 [apigenin],Elimination rate on MGO (MGO scavenged),[1],40%
CC(=O)C(O)c1c(O)c(C(O)C(C)=O)c2oc(-c3ccc(O)c(O)c3)c(O[C@@H]3O[C@H](CO[C@@H]4O[C@@H](C)[C@H](O)[C@@H](O)[C@H]4O)[C@@H](O)[C@H](O)[C@H]3O)c(=O)c2c1O (stereo partly shown) [6-(1-acetol)-8-(1-acetol)-rutin],"Total (maximum) level in plasma, sum of adducts A and B",[2]; 15 min after oral rutin 100 mg/kg BW,15.80 µg/L
Oc1cc(O)c2c(c1)O[C@H](c1ccc(O)c(O)c1)[C@H](O)C2 [epicatechin],Elimination rate on MGO (MGO scavenged),[1],99%
"CC(=O)C(O)c1c(O)c(C(O)C(C)=O)c2oc(-c3ccc(O)c(O)c3)c(OC3OC(COC4OC(C)C(O)C(O)C4O)C(O)C(O)C3O)c(=O)c2c1O (stereo not shown) [Adduct A, 6-(1-acetol)-8-(1-acetol)-rutin]",concentration at 0.25 h,"[2]; male, Sprague-Dawley, rat, plasma, oral, rutin 100 mg/kg BW oral gavage, time point 0.25 h",9.4 ng/mL
same,Plasma concentration,[2]; [10],9.40 ± 6.37 ng/mL
same,Plasma concentration,[2]; [11],trace
same,Plasma concentration,[2]; [12],trace
same,Plasma concentration,"[2]; rutin 100 mg/kg BW oral gavage, time point 10.00 h",trace
same,Concentration in kidney,[3]; [13],trace
same,Concentration in feces,[3],Trace
same,Reduction of cell viability (cells dead),"[4]; GES-1, 1 mM",27%
same,Reduction of cell viability (cells dead),[5],19%
same,Reduction of cell viability (cells dead),[6],19%
"CC(=O)C=O [MGO, Methylglyoxal]",Growth of the cells inhibited,"[4]; GES-1, 600 μM",more than 50%
same,Cells left alive,"[4]; GES-1, 1 mM",17%
same,Growth of the cells inhibited,"[4]; GES-1, 200–400 μM",18–19%
"CC(=O)C(=O)c1c(O)c(C(=O)C(C)=O)c2oc(-c3ccc(O)c(O)c3)c(O[C@@H]3O[C@H](CO[C@@H]4O[C@@H](C)[C@H](O)[C@@H](O)[C@H]4O)[C@@H](O)[C@H](O)[C@H]3O)c(=O)c2c1O [6-(1,2-propanedione)-8-(1,2-propanedione)-rutin]",Concentration in brain,[3]; [13],0.12 ± 0.02 µg/kg
same,Concentration in caecum,[3]; [13],trace
same,Concentration in heart,[3]; [13],0.14 ± 0.09 µg/kg
same,Concentration in ileum,[3]; [13],trace
same,Concentration in kidney,[3]; [13],0.16 ± 0.04 µg/kg
same,Concentration in liver,[3]; [13],0.09 µg/kg and 0.09 ± 0.01 µg/kg
same,Concentration in stomach,[3]; [13],0.10 µg/kg and 0.10 ± 0.01 µg/kg
same,Concentration in feces,[3],0.26 ± 0.18 µg/kg
same,"Content in feces, folds lower than 6-(1,2-propanedione)-8-(1-acetol)-rutin and 6-(1-acetol)-8-(1,2-propanedione)-rutin",[3]; feces within 24 h after rutin 100 mg/kg BW oral,6–9 folds
same,Concentration in urine,[3],0.10 ng/mL and 0.10 ± 0.01 ng/mL
same,Plasma concentration of oxidized rutin-MGO adducts,[9],1.02 ng/mL
